This note sets out measurements from the kinase profiling compilation of Christmann-Franck et al. (2016).

Test [1] has as its target AKT1 (human) (UniProt P31749). As to the kind of experiment: SelectScreen, TR FRET. The conditions noted are these: compound 1.0 µM. A general note: In TR-FRET formats the signal depends on donor and acceptor labels being close together.
Test [2] concerns the target AURKA (human) (UniProt O14965). Description: SelectScreen, TR FRET. The conditions noted are these: compound 1.0 µM.
Test [3] deals with CHEK2 (human) (UniProt O96017). As to the kind of experiment: SelectScreen, TR FRET. The conditions noted are these: compound 1.0 µM.
In test [4] the target is EPHA1 (human) (UniProt P21709). As to the kind of experiment: SelectScreen, TR FRET. The settings on record: compound 1.0 µM.
Test [5] addresses FLT4 (human) (UniProt P35916). Description: SelectScreen, TR FRET. The conditions noted are these: compound 1.0 µM.
In test [6] the target is KDR (human) (UniProt P35968). Description: SelectScreen, TR FRET. The settings on record: compound 1.0 µM.
The target of test [7] is PDGFRA (human) (UniProt P16234). Description: SelectScreen, TR FRET. The settings on record: compound 1.0 µM.
Test [8] addresses PDGFRB (human) (UniProt P09619). As to the kind of experiment: SelectScreen, TR FRET. The conditions noted are these: compound 1.0 µM.
The target of test [9] is CSNK1A1L (human) (UniProt Q8N752). Description: KINOMEscan competition binding.
Test [10] has as its target MAP3K12 (human) (UniProt Q12852). As to the kind of experiment: KINOMEscan competition binding.
Test [11] addresses MYLK3 (human) (UniProt Q32MK0). As to the kind of experiment: KINOMEscan competition binding.
In test [12] the target is PRKACA (human) (UniProt P17612). Description: KINOMEscan competition binding.
The target in test [13] is SBK1 (human) (UniProt Q52WX2). Description: KINOMEscan competition binding.
Test [14] deals with TNK2 (human) (UniProt Q07912). As to the kind of experiment: KINOMEscan competition binding.
Test [15] has as its target BMPR1A (human) (UniProt P36894). Description: KINOMEscan competition binding. The conditions noted are these: compound 1.0 µM.
Test [16] concerns the target TAOK1 (human) (UniProt Q7L7X3). As to the kind of experiment: KINOMEscan competition binding. The settings on record: compound 1.0 µM.
In test [17] the target is PDPK1 (human) (UniProt O15530). As to the kind of experiment: SelectScreen, TR FRET. The conditions noted are these: compound 1.0 µM.
Test [18] deals with MAPK9 (human) (UniProt P45984).
Test [19] has as its target PDPK1 (human) (UniProt O15530).
In test [20] the target is PRKACA (human) (UniProt P17612).
Test [21] has as its target CAMK1G (human) (UniProt Q96NX5). Description: KINOMEscan competition binding. The settings on record: compound 10.0 µM.
Test [22] relates to CPK1 (P.falciparum). Description: KINOMEscan competition binding. The settings on record: compound 10.0 µM.
The target of test [23] is CRK2 (P.falciparum) (UniProt P61075). Description: KINOMEscan competition binding. The conditions noted are these: compound 10.0 µM.
Test [24] addresses TAOK2 (human) (UniProt Q9UL54). Description: KINOMEscan competition binding. The settings on record: compound 10.0 µM.

Each structure is given as a SMILES string.

Chain of PDPK1 (human) (O15530 whole entry, looked up): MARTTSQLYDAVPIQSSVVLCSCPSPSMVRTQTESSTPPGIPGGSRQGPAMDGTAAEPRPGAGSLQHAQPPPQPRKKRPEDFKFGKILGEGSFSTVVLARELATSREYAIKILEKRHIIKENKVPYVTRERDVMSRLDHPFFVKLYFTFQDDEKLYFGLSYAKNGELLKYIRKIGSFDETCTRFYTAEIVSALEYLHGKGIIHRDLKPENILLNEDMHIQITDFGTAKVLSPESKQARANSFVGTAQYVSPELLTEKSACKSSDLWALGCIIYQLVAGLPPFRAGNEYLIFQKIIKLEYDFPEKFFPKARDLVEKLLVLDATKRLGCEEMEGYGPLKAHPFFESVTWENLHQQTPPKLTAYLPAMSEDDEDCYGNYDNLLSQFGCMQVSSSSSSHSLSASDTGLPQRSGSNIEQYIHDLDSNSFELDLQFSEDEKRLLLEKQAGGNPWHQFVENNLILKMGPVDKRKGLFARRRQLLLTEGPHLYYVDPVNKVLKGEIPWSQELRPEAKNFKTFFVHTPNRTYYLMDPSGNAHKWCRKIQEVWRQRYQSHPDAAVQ
Chain of MYLK3 (human) (Q32MK0 whole entry, looked up): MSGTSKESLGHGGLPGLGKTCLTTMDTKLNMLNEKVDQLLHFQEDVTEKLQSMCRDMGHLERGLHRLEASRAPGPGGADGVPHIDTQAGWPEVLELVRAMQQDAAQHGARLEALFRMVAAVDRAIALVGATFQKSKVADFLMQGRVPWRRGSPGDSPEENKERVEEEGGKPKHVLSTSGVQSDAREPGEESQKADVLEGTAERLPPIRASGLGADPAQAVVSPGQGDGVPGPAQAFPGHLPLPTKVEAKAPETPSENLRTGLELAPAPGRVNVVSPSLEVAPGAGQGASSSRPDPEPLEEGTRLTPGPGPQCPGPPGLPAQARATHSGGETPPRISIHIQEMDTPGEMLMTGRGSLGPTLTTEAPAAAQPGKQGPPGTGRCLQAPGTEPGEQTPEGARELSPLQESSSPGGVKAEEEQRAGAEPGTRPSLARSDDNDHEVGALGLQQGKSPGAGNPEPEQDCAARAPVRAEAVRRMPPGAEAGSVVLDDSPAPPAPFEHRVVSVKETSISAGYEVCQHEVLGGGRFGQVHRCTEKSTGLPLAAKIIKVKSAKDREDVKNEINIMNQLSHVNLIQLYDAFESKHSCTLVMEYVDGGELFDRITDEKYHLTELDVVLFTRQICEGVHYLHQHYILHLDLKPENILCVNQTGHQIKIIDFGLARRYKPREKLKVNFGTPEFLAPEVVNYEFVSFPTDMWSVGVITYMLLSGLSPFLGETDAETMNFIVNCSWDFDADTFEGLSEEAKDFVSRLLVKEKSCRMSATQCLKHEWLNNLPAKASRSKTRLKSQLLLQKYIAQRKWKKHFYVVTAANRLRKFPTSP
Chain of MAP3K12 (human) (Q12852 whole entry, looked up): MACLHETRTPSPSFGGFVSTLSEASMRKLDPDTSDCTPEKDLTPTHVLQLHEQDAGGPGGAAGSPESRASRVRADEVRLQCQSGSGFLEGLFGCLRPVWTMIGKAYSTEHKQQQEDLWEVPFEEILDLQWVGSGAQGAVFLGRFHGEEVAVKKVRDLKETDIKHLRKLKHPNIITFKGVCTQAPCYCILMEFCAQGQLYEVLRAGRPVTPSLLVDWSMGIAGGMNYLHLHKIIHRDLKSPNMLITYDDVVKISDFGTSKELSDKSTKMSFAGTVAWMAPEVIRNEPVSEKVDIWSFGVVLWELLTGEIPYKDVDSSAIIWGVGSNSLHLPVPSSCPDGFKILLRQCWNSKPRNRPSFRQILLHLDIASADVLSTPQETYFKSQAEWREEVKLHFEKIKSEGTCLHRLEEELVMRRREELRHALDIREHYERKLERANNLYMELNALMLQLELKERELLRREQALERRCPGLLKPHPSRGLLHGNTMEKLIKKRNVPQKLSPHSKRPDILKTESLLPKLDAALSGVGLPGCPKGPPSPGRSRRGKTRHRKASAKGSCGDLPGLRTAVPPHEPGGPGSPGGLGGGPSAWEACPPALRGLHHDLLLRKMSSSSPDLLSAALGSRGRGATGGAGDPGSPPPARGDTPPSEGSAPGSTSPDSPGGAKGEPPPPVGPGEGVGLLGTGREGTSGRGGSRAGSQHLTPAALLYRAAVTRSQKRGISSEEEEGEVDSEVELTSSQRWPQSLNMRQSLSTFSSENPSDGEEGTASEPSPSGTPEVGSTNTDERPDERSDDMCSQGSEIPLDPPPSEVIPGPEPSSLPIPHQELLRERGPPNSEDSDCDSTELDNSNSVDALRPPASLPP
Chain of TNK2 (human) (Q07912 whole entry, looked up): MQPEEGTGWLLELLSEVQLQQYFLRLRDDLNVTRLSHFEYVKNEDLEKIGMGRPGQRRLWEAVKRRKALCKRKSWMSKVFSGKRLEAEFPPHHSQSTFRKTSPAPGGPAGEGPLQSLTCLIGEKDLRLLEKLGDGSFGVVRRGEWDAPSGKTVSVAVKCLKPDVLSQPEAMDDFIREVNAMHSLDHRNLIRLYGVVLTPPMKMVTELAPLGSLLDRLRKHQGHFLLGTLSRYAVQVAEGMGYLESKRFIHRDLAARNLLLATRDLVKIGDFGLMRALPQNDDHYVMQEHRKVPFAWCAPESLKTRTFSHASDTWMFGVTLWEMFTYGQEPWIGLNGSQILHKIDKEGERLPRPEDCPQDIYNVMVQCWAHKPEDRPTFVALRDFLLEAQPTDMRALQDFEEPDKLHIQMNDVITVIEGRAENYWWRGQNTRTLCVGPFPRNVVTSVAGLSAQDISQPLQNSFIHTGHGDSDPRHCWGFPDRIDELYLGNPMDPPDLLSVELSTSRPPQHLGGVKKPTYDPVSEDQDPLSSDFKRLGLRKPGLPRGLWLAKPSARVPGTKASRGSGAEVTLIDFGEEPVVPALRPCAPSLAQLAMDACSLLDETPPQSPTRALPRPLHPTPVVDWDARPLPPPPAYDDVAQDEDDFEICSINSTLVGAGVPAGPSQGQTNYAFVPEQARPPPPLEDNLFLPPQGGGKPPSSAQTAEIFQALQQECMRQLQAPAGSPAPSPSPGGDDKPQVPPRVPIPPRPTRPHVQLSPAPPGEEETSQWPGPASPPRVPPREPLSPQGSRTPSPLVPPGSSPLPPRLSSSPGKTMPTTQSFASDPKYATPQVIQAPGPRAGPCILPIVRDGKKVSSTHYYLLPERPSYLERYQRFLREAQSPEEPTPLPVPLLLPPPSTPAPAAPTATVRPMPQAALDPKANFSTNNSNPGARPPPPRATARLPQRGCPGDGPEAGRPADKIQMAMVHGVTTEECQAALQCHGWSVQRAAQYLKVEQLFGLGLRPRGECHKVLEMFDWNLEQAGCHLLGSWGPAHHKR
Chain of CAMK1G (human) (Q96NX5 whole entry, looked up): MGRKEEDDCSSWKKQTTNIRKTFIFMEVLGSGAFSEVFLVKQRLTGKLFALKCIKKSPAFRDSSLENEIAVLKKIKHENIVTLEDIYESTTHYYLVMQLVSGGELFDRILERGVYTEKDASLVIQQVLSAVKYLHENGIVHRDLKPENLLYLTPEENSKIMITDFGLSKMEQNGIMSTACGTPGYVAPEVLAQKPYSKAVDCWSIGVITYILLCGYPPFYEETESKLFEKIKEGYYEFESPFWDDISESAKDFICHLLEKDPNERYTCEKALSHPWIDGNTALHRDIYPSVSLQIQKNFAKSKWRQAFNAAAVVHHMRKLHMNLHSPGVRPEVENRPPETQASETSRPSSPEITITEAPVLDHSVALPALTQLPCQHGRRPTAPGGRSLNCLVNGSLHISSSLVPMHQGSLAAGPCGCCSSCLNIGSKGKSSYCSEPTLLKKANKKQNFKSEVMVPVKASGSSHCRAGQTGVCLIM
Chain of CRK2 (P.falciparum) (P61075 whole entry, looked up): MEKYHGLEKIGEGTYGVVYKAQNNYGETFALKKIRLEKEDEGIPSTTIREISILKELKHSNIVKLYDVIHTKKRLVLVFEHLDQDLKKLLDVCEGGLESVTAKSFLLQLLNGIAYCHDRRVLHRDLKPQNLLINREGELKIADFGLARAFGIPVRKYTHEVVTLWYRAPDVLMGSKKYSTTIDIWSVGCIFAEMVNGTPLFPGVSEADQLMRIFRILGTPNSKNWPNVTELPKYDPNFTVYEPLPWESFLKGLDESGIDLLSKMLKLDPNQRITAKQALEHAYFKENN
Chain of CHEK2 (human) (O96017 whole entry, looked up): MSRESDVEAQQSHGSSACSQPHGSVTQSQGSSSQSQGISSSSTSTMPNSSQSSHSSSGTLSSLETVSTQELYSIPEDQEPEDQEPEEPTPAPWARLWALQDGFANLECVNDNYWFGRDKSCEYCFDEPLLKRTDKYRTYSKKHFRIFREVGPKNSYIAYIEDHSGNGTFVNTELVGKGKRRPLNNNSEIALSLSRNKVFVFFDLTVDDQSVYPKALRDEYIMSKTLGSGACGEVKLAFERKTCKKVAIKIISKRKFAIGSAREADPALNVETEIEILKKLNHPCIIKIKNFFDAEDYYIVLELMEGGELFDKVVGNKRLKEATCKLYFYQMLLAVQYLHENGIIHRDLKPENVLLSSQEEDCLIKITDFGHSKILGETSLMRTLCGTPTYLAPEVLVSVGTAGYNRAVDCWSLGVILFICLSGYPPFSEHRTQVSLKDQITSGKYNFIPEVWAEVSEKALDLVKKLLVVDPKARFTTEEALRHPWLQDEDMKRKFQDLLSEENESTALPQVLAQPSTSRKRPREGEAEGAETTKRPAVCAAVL
Chain of MAPK9 (human) (P45984 whole entry, looked up): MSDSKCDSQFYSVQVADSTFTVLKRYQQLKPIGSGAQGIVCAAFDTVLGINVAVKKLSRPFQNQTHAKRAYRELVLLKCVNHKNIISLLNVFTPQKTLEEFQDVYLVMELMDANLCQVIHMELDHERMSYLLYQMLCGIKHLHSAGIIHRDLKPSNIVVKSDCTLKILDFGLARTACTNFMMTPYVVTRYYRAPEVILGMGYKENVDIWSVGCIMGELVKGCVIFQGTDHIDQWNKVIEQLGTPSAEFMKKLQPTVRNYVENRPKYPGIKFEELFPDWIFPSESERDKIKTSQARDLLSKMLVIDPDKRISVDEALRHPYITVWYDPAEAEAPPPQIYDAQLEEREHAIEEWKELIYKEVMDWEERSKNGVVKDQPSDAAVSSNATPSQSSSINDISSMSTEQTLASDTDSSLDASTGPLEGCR

As to `CC(C)(C)c1cc(NC(=O)NCc2ccc(-c3cc(NC(=O)c4ccc(OCCN5CCOCC5)cc4)[nH]n3)cc2)no1`, the inhibition in [1] was -17%; in test [2] it was -48%; in test [3], -10%; in [4] it was -20%; in [5], -86%; in [6] it was -99%. In addition, the inhibition in test [7] was -85%; in [8], -97%.
`CO[C@@H]1[C@H](N(C)C(=O)c2ccccc2)C[C@H]2O[C@]1(C)n1c3ccccc3c3c4c(c5c6ccccc6n2c5c31)C(=O)NC4O` (some centres not stated): the Kd in test [9] is > 10 µM; in test [10], > 10 µM; in [11], > 10 µM; in test [12], > 10 µM; in test [13], > 10 µM; in test [14] it was 0.015 µM.
For `Nc1ccccc1Nc1ccc2c(c1)CCc1ccccc1C2=O`, the kinase still bound, per cent of control in test [15] and in test [16] was 100% in each case.
In test [17], `CC(C)(O)c1ccc(-c2cnc3c(n2)N(CC2CCOCC2)CC(=O)N3)cn1` had a residual activity of 100%.
As to `Cc1c(C(=O)N2CCOc3ccc(-c4ccc(N)nc4)cc3C2)ccc(S(C)(=O)=O)c1F`, the half-inhibitory concentration (IC50) in [18], in test [19] and in test [20] was > 10 µM each time.
With `O=C(Nc1cccnc1)c1cc(-c2ccnc(F)c2)ccc1OCc1ccccc1`, the kinase still bound, per cent of control in test [21], in test [22], in test [23], in test [11] (compound 10.0 µM), in test [24] and in test [14] (compound 10.0 µM) was 100% each time. This compound came in with a residual activity in [10] (compound 10.0 µM) of 100%.

What is called inhibition is the change of the read-out against control, counted positive when it falls. As usually defined, the Kd is the free concentration of one partner at which half of the binding sites on the other are occupied at equilibrium, for simple one-to-one binding. What is called residual activity is what remains of the control signal, in per cent. Lower therefore signals little activity left. What is called IC50 is the concentration that inhibits the measured activity by half. A higher IC50 goes with lower potency.
